Here are results for 19 compounds from patent US6562978B1, “Cyclic amine compounds as CCR5 antagonists” (Takeda Chemical Industries, Ltd., priority 1999, dated 2003).

Structures can show the parent of a compound that is named as a salt.

The target in the assay is T1, human CCR5 (Homo sapiens, UniProt P51681).
T1 construct: expressed in transfected cells; whole cells in the well
T1 sequence (P51681 whole entry): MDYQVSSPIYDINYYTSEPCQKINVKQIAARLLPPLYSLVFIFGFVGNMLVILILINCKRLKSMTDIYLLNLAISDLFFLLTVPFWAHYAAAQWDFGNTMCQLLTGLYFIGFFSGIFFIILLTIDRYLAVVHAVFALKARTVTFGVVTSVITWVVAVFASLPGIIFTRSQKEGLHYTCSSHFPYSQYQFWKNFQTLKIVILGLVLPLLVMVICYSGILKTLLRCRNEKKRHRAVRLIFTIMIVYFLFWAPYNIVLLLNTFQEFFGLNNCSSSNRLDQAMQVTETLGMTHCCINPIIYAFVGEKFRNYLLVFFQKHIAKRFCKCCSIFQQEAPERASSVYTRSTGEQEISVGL
As to the kind of experiment: CCR5 binding assay: inhibition of [125I]-RANTES binding to CHO/CCR5 cells. To be noted: 1.0 μM test compound, 100 pM [125I]-RANTES, room temperature 40 minutes, read-out: Inhibition Rate (%) at 1.0 μM. As for the experimental part: (1) Cloning of Human CCR5 Chemokine Receptor
Cloning of CCR5 gene was carried out by PCR (polymerase chain reaction) from human spleen cDNA. With using 0.5 ng of spleen cDNA (Toyobo, QUICK-Clone cDNA) as template, PCR was performed in DNA Thermal Cycler 480 (Perkin-Elmer) (reaction conditions: 30 cycles of 95° C. for 1 minute, 60° C. for 1 minute, and 75° C. for 5 minutes) by adding primer set, 5′-[…]-3′ (25 pmol) and 5′-[…]-3′ (25 pmol), which were designed referring to nucleotide sequence of CCR5 gene reported by Samson et al. (Biochemistry, 35(11), 3362-3367 (1996)) and by using TaKaRa EX Taq (Takara Shuzo). The resultant PCR product was subjected to agarose gel electrophoresis to collect about 1.0 kb DNA fragment, which was subjected to Original TA Cloning Kit (Funakoshi) to carry out cloning of CCR5 gene.
(2) Preparation of Plasmid for Expression of Human […]
The plasmid obtained in the above (1) was digested with restriction enzymes XbaI (Takara Shuzo) and BamHI (Takara Shuzo) and subjected to agarose gel electrophoresis to collect about 1.0 kb DNA fragment. The DNA fragment was mixed with plasmid pcDNA3.1 (Funakoshi) for expression in animal cells, said plasmid being digested with XbaI and BamHI, and they were ligated with DNA Ligation Kit Ver.2 (Takara Shuzo). The resulting plasmid was subjected to transformation of competent cell of E. coli JM109 (Takara Shuzo) to obtain plasmid pCKR5.
(3) Introduction of Plasmid for Expression of Human CCR5 into CHO-K1 Cell and Expression of said Plasmid in CHO-KY Cell
CHO-K1 cells were grown in 750 ml of tissue culture flask (Becton Dickinson) using Ham's F12 medium (Nihon Pharmaceutical) containing 10% fetal calf serum (Life Tech Oriental) and took off with 0.5 g/L trypsin-0.2 g/L EDTA (Life Tech Oriental). The cells were washed with PBS (Life Tech Oriental), centrifuged (1000 rpm, 5 minutes), and suspended in PBS. With using Gene Pulser (Bio-Rad Laboratories), DNA was introduced into the cells under the conditions shown below. That is, to the cuvette of 0.4 cm gap were added 8×10^6 cells and 10 μg of plasmid pCKR5 for expression of human CCR5, and electroporation was carried out under 0.25 kV of voltage and […] of capacitance. The cells were transferred into Ham's F12 medium (Nihon Pharmaceutical) containing 10% fetal calf serum, and cultivated for 24 hours. The cells were again took off and centrifuged, and suspended in Ham's F12 medium (Nihon Pharmaceutical) containing 10% fetal calf serum and 500 μg/ml of geneticin (Life Tech Oriental). The suspension was diluted to give 10^4 cells/ml of the suspension, which was inoculated on 96 well plate (Becton Dickinson) to give geneticin resistant cells. The resulting geneticin resistant cells were cultivated in 96 well plate (Becton Dickinson), and cells expressing CCR5 were selected from the geneticin resistant cells. That is, in assay buffer (Ham's F12 medium containing 0.5% BSA and 20 mM HEPES (Wako Pure Chemical, pH7.2) to which was added 200 pM of [^125I]-RANTES (Amersham) as ligand, binding reaction was carried out at room temperature for 40 minutes, and the buffer was washed with cooled PBS. To the buffer was added 50 μl/well of 1M NaOH, and the mixture was stirred. Radioactivity was determined with γ-counter to select CHO/CCR5 cells which specifically bind to the ligand.
(4) Evaluation of Test Compounds Based on CCR5 Antagonistic Activity
The CHO/CCR5 were inoculated on 96 well microplate (5×10^4 cells/well) and cultivated for 24 hours. The medium was removed by means of suction, and to each well was added assay buffer containing Test Compound (191) and then 100 pM of [^125I]-RANTES (Amersham) as ligand. Binding assay was carried out at room temperature for 40 minutes, and assay buffer was removed by means of suction. Each well was washed twice with cooled PBS, and 200 μl of Microscint-20 (Packard Instrument, Inc.) was added to each well.
Consider `CC(=O)N1CCC(C(=O)N(CCCN2CCC(n3nnc4ccccc43)CC2)c2cccc(Cl)c2)CC1` [Example 289, 1-Acetyl-N-{3-[4-(1H-1,2,3-benzotriazol-1-yl)-1-piperidinyl]propyl}-N-(3-chlorophenyl)-4-piperidinecarboxamide], for which the inhibition (in general, the change of the read-out against control, counted positive when it falls) at 1 µM amounted to 83%. On to `CC(=O)N1CCC(C(=O)N(CCCN2CCC(C#N)(Cc3ccccc3)CC2)c2cccc(Cl)c2)CC1` [Example 291, 1-Acetyl-N-[3-(4-benzyl-4-cyano-1-piperidinyl)propyl]-N-(3-chlorophenyl)-4-piperidinecarboxamide], for which the inhibition at 1 µM was 84%. Take `CS(=O)(=O)N1CCC(C(=O)N(CCCN2CCC(Cc3ccc(N4CCOCC4)cc3)CC2)c2ccc(Cl)c(Cl)c2)CC1` [Example 292, N-(3,4-Dichlorophenyl)-1-(methylsulfonyl)-N-{3-[4-(4-morpholinobenzyl)-1-piperidinyl]propyl}-4-piperidinecarboxamide]: the inhibition at 1 µM came to 97%. As for `CC(=O)N1CCC(C(=O)N(CCCN2CCC(Cc3ccc(-n4cnnn4)cc3)CC2)c2ccc(Cl)c(Cl)c2)CC1` [Example 300, 1-Acetyl-N-(3,4-dichlorophenyl)-N-(3-{4-[4-(1H-tetrazol-1-yl)benzyl]-1-piperidinyl}propyl)-4-piperidinecarboxamide], the figure is 100%; as for `CC(=O)N1CCC(C(=O)N(CCCN2CCC(Cc3ccc(NS(C)(=O)=O)cc3)CC2)c2ccc(Cl)c(Cl)c2)CC1` [Example 304, 1-Acetyl-N-(3,4-dichlorophenyl)-N-[3-(4-{4-[(methylsulfonyl)amino]benzyl}-1-piperidinyl)propyl]-4-piperidinecarboxamide], 99%. Take `CS(=O)(=O)N1CCC(C(=O)N(CCCN2CCC(Cc3ccc(-n4cnnn4)cc3)CC2)c2ccc(Cl)c(Cl)c2)CC1` [Example 309, N-(3,4-Dichlorophenyl)-1-(methylsulfonyl)-N-(3-{4-[4-(1H-tetrazol-1-yl)benzyl]-1-piperidinyl}propyl)-4-piperidinecarboxamide]: the inhibition at 1 µM was found to be 92%. Consider `CS(=O)(=O)Nc1ccc(CC2CCN(CCCN(C(=O)C3CCN(S(C)(=O)=O)CC3)c3ccc(Cl)c(Cl)c3)CC2)cc1` [Example 313-2, N-(3,4-Dichlorophenyl)-1-(methylsulfonyl)-N-[3-(4-{4-[(methylsulfonyl)amino]benzyl}-1-piperidinyl)propyl]-4-piperidinecarboxamide], for which the inhibition at 1 µM was found to be 97%. Take `CC(=O)N1CCC(C(=O)N(CCCN2CCC(Cc3ccc(N4CCOCC4)cc3)CC2)c2ccc(Cl)c(Cl)c2)CC1` [Example 318, 1-Acetyl-N-(3,4-dichlorophenyl)-N-{3-[4-(4-morpholinobenzyl)-1-piperidinyl]propyl}-4-piperidinecarboxamide]: the inhibition at 1 µM turned out to be 100%.

Take `CS(=O)(=O)c1ccc(S(=O)(=O)C2CCN(CCCN(C(=O)C3CCN(S(C)(=O)=O)CC3)c3ccc(Cl)c(Cl)c3)CC2)cc1` [Example 334, N-(3,4-Dichlorophenyl)-1-(methylsulfonyl)-N-[3-(4-{[4-(methylsulfonyl)phenyl]sulfonyl}-1-piperidinyl)propyl]-4-piperidinecarboxamide]: the inhibition at 1 µM came out at 100%. For `CCN(C1CCN(CCCN(C(=O)C2CCN(S(C)(=O)=O)CC2)c2ccc(Cl)c(Cl)c2)CC1)S(=O)(=O)c1ccc(S(C)(=O)=O)cc1` [Example 341, N-(3,4-Dichlorophenyl)-N-{3-[4-(ethyl{[4-(methylsulfonyl)phenyl]sulfonyl}amino)-1-piperidinyl]propyl}-1-(methylsulfonyl)-4-piperidinecarboxamide], the inhibition at 1 µM came to 98%. For the compound `CS(=O)(=O)N1CCC(C(=O)N(CCCN2CCC(Cc3ccc(S(=O)(=O)N4CCOCC4)cc3)CC2)c2ccc(Cl)c(Cl)c2)CC1` [Example 356, N-(3,4-Dichlorophenyl)-1-(methylsulfonyl)-N-(3-{4-[4-(4-morpholinylsulfonyl)benzyl]-1-piperidinyl}propyl)-4-piperidinecarboxamide], the inhibition at 1 µM came out at 100%. As to `CS(=O)(=O)N1CCC(C(=O)N(CCCN2CCC(Cc3ccc(C(N)=O)cc3)CC2)c2ccc(Cl)c(Cl)c2)CC1` [Example 362, N-(3-{4-[4-(Aminocarbonyl)benzyl]-1-piperidinyl}propyl)-N-(3,4-dichlorophenyl)-1-(methylsulfonyl)-4-piperidinecarboxamide], the inhibition at 1 µM is 95%. In the case of `Cc1cc(NS(=O)(=O)c2ccc(CC3CCN(CCCN(C(=O)C4CCN(S(C)(=O)=O)CC4)c4ccc(Cl)c(Cl)c4)CC3)cc2)no1` [Example 372, N-(3,4-Dichlorophenyl)-N-{3-[4-(4-{[(5-methyl-3-isoxazolyl)amino]sulfonyl}benzyl)-1-piperidinyl]propyl}-1-(methylsulfonyl)-4-piperidinecarboxamide], the inhibition at 1 µM was 97%.

Turning to `CS(=O)(=O)c1ccc(OC2CCN(CCCN(C(=O)C3CCN(S(C)(=O)=O)CC3)c3ccc(Cl)c(Cl)c3)CC2)cc1` [Example 374, N-(3,4-Dichlorophenyl)-1-(methylsulfonyl)-N-(3-{4-[4-(methylsulfonyl)phenoxy]-1-piperidinyl}propyl)-4-piperidinecarboxamide], the inhibition at 1 µM was 92%. On to `CC(=O)N1CCC(C(=O)N(CCCN2CCC(Cc3ccc(C(N)=O)cc3)CC2)c2ccc(C)c(Cl)c2)CC1` [Example 376, 1-Acetyl-N-(3-{4-[4-(aminocarbonyl)benzyl]-1-piperidinyl}propyl)-N-(3-chloro-4-methylphenyl)-4-piperidinecarboxamide], for which the inhibition at 1 µM stood at 97%. On to `CC(C)S(=O)(=O)c1ccc(CC2CCN(CCCN(C(=O)C3CCN(S(C)(=O)=O)CC3)c3ccc(Cl)c(Cl)c3)CC2)cc1` [Example 384, N-(3,4-Dichlorophenyl)-N-(3-{4-[4-(isopropylsulfonyl)benzyl]-1-piperidinyl}propyl)-1-(methylsulfonyl)-4-piperidinecarboxamide], for which the inhibition at 1 µM worked out at 100%.

Consider `CCS(=O)(=O)c1ccc(CC2CCN(CCCN(C(=O)C3CCN(S(C)(=O)=O)CC3)c3cccc(Cl)c3)CC2)cc1` [Example 413, N-(3-Chlorophenyl)-N-(3-{4-[4-(ethylsulfonyl)benzyl]-1-piperidinyl}propyl)-1-(methylsulfonyl)-4-piperidinecarboxamide Hydrochloride], for which the inhibition at 1 µM turned out to be 99%.

On to `CS(=O)(=O)c1ccc(CC2CCN(CCCN(C(=O)C3CCN(S(C)(=O)=O)CC3)c3ccc(Cl)c(Cl)c3)CC2)cc1` [Example 420, N-(3,4-Dichlorophenyl)-1-(methylsulfonyl)-N-(3-{4-[4-(methylsulfonyl)benzyl]-1-piperidinyl}propyl)-4-piperidinecarboxamide Hydrochloride], for which the inhibition at 1 µM stood at 98%. As for `Cc1ccc(N(CCCN2CCC(Cc3ccc(C(N)=O)cc3)CC2)C(=O)C2CCN(S(C)(=O)=O)CC2)cc1Cl` [Example 470, N-(3-{4-[4-(Aminocarbonyl)benzyl]-1-piperidinyl}propyl)-N-(3-chloro-4-methylphenyl)-1-(methylsulfonyl)-4-piperidinecarboxamide], the figure is 99%.
